According to paper PMC10031741, “A D-cysteine desulfhydrase, SlDCD2, participates in tomato fruit ripening by modulating ROS homoeostasis and ethylene biosynthesis” (Horticulture Research, 2023):

Target: T1, SlDCD2 (Solanum lycopersicum, UniProt A0A3Q7EA38)
T1 construct: gene LOC101256906; tag removal not mentioned
T1 sequence (A0A3Q7EA38 1-442): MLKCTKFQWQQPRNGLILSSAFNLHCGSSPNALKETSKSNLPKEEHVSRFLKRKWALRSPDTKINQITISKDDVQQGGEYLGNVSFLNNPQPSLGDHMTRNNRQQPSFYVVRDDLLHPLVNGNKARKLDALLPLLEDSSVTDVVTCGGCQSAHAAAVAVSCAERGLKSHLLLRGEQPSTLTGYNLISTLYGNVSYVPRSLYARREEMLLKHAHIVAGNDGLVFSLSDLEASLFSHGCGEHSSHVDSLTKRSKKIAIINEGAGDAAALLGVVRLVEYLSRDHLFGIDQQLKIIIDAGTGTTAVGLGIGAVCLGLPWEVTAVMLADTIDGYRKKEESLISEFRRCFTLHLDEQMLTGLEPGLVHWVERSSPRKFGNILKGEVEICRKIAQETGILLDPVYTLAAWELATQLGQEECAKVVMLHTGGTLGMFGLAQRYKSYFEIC
Test: H2S production, methylene blue at […] nm
Type: biochemical
Conditions: H2S release; assay as in cited reference

Q: How did the “H2S production, methylene blue at 670 nm” value turn out when `N[C@H](CS)C(=O)O` [D-cysteine] was run?
A: Using D-cysteine as the substrate, the enzymatic activity of SlDCD2 was evaluated
